# Laboratory results from patent publication US20100048597A1 (Novartis AG, priority 2006, published 2010).
# Read-outs that look alike come from different tables or passages of the source.
# Legend:
# Format in all cases: biochemical
# CDK9/cyclinT1 = target: T1, CDK9/cyclinT1 (Homo sapiens, UniProt P50750); experiment: CDK9/cyclinT1 kinase assay, IMAP fluorescence polarization
# T1 construct: purchased Millipore
# Description: (§1) Kinase assays were performed on recombinant purified enzymes using the non-radioactive IMAP fluorescence polarization assay format.
# (§2) Compound stocks were prepared and diluted in DMSO and were added to kinase reactions at a 1/100 dilution for a final concentration of 1% DMSO. The components were added together to final concentrations listed in the tables below and incubated for two hours at room temperature.
# (§3) The reactions were stopped by addition of stop solution.
# CDK9/CDK1/CDK7: final stop concentration is 1× Developer buffer (85% A/15% B), IMAP beads 1/400
# (§4) The samples were allowed to incubate for one more hour at room temperature and then the fluorescence polarization was measured. The plate normalized millipolarization (mP) values were plotted against the log of compound concentration for each compound and IC50 values were calculated using the spotfire IC50 calculator and confirmed by visual analysis.
# CDK1/cyclinB = target: T2, CDK1/cyclinB (Homo sapiens, UniProt P06493); experiment: CDK1/cyclinB kinase assay, IMAP fluorescence polarization
# T2 construct: purchased Millipore
# T2 sequence (P06493 whole entry): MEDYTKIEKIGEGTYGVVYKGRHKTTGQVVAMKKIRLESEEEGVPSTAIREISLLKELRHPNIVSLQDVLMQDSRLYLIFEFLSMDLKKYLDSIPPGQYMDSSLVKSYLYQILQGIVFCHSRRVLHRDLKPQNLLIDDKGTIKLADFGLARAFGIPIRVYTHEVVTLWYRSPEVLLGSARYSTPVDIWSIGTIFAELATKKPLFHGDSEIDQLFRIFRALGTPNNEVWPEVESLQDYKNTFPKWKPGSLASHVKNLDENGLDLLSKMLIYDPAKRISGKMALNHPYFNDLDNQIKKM
# T2 sequence (P14635 whole entry partner): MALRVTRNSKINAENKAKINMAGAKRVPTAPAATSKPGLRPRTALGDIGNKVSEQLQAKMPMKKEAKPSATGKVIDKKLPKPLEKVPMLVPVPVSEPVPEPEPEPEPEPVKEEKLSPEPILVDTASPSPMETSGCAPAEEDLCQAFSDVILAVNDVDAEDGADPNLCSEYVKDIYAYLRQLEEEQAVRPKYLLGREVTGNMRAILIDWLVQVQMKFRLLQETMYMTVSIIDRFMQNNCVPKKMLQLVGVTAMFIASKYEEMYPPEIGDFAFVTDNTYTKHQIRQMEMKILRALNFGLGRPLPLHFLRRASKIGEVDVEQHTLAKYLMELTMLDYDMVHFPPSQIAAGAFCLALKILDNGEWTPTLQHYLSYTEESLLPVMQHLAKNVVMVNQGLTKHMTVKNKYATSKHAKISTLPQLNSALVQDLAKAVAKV
# Description: as §1, §2, §3
# The samples were allowed to incubate for one more hour at room temperature and then the fluorescence polarization was measured.
# CDK2/cyclinA = target: T3, CDK2/cyclinA (Homo sapiens, UniProt P24941); experiment: CDK2/cyclinA kinase assay, IMAP fluorescence polarization
# T3 construct: purchased Millipore
# Description: as §1, §2, §3
# CDK2: final stop concentration is 1× Developer buffer (100% A), IMAP beads 1/400
# as §4
# T1 sequence (P50750 whole entry): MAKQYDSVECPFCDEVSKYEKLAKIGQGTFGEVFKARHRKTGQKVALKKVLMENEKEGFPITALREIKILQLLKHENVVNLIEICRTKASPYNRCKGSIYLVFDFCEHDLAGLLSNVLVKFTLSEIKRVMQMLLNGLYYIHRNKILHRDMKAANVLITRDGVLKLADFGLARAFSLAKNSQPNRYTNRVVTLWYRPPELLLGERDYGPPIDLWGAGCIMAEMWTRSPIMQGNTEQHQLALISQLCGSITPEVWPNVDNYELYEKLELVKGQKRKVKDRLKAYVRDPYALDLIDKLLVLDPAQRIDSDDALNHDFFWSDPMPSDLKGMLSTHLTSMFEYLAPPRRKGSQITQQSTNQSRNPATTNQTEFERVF
# T1 sequence (O60563 whole entry partner): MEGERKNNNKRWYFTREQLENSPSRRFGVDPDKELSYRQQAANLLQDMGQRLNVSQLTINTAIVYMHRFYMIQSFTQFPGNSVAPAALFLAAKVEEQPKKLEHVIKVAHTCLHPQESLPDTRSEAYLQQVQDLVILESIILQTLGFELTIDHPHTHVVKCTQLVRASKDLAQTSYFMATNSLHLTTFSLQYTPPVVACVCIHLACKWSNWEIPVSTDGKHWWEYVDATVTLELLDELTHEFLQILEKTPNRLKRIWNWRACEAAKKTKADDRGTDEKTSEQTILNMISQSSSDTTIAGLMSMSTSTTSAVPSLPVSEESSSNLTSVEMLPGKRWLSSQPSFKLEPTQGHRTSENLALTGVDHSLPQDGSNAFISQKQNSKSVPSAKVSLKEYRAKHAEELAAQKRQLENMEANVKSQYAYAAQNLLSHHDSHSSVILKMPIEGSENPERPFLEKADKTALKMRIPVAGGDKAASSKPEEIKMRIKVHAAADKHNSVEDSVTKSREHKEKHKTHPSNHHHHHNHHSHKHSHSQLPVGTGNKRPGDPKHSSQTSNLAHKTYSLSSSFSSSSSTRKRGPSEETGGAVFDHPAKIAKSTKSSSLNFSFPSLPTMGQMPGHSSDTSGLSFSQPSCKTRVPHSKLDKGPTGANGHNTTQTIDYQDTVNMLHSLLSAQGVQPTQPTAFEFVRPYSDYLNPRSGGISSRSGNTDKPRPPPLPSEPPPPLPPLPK
IC50 (CDK9/cyclinT1),IC50 (CDK2/cyclinA),IC50 (CDK1/cyclinB; read-out: CDK1 IC50),SMILES,IC50 (CDK1/cyclinB)
< 5 µM,,< 5 µM,"CNCCCN(C)c1nccc(-c2ccnc(Nc3cccc(Cl)c3)n2)c1C [Compound 9, N-{4-[2-(3-Chloro-phenylamino)-pyrimidin-4-yl]-3-methyl-pyridin-2-yl}-N,N′-dimethyl-propane-1,3-diamine]",
15 to 50 µM,,> 50 µM,"Cc1cc(-c2ccnc(NCCCN)c2)nc(Nc2cccc(Cl)c2)n1 [Compound 33, N-{4-[2-(3-Chloro-phenylamino)-6-methyl-pyrimidin-4-yl]-pyridin-2-yl}-propane-1,3-diamine]",
< 5 µM,< 5 µM,< 5 µM,"Cc1nccn1CCCNc1ncccc1-c1ccnc(Nc2cccc(Cl)c2)n1 [Compound 81, (3-Chloro-phenyl)-(4-{2-[3-(2-methyl-imidazol-1-yl)-propylamino]-pyridin-3-yl}-pyrimidin-2-yl)-amine]",
> 50 µM,> 50 µM,> 50 µM,"COc1ncccc1-c1ccnc(Nc2cccnc2)n1 [Compound 90, [4-(2-Methoxy-pyridin-3-yl)-pyrimidin-2-yl]-pyridin-3-yl-amine]",
> 50 µM,,15 to 50 µM,"CNCCCN(C)c1nccc(-c2ccnc(N(C)c3cccc(Cl)c3)n2)c1C [Compound 11, N-(4-{2-[(3-Chloro-phenyl)-methyl-amino]-pyrimidin-4-yl}-3-methyl-pyridin-2-yl)-N,N′-dimethyl-propane-1,3-diamine]",
< 5 µM,> 50 µM,> 50 µM,"COc1ncccc1-c1ccnc(Nc2cccc([N+](=O)[O-])c2)n1 [Compound 92, [4-(2-Methoxy-pyridin-3-yl)-pyrimidin-2-yl]-(3-nitro-phenyl)-amine]",
< 5 µM,< 5 µM,< 5 µM,"COc1ncccc1-c1ccnc(Nc2cccc(C3CCNCC3)c2)n1 [Compound 113, [4-(2-Methoxy-pyridin-3-yl)-pyrimidin-2-yl]-(3-piperidin-4-yl-phenyl)-amine]",
< 5 µM,,< 5 µM,"Cc1cnc(Nc2cccc(Cl)c2)nc1-c1ccnc(NCCCN)c1 [Compound 31, N-{4-[2-(3-Chloro-phenylamino)-5-methyl-pyrimidin-4-yl]-pyridin-2-yl}-propane-1,3-diamine]",
5 to 15 µM,,> 50 µM,"COc1ccc(-c2ccnc(Nc3cccc(Cl)c3)n2)c(OC)n1 [Compound 118, (3-Chloro-phenyl)-[4-(2,6-dimethoxy-pyridin-3-yl)-pyrimidin-2-yl]-amine]",
< 5 µM,,< 5 µM,"Cc1cnc(NCCCN)cc1-c1ccnc(Nc2cccc(Cl)c2)n1 [Compound 39, N-{4-[2-(3-Chloro-phenylamino)-pyrimidin-4-yl]-5-methyl-pyridin-2-yl}-propane-1,3-diamine]",
< 5 µM,,< 5 µM,"CC(=O)NCCCNc1cc(-c2cc(C)nc(Nc3cccc(Cl)c3)n2)ccn1 [Compound 34, N-(3-{4-[2-(3-Chloro-phenylamino)-6-methyl-pyrimidin-4-yl]-pyridin-2-ylamino}-propyl)-acetamide]",
5 to 15 µM,,15 to 50 µM,"COc1ncccc1-c1ccnc(NC2CCCCC2)n1 [Compound 88, Cyclohexyl-[4-(2-methoxy-pyridin-3-yl)-pyrimidin-2-yl]-amine]",
< 5 µM,,< 5 µM,"CCc1c(-c2ccnc(Nc3cccc(Cl)c3)n2)ccnc1NCCCN [Compound 5, N-{4-[2-(3-Chloro-phenylamino)-pyrimidin-4-yl]-3-ethyl-pyridin-2-yl}-propane-1,3-diamine]",
< 5 µM,,< 5 µM,"Clc1cccc(Nc2nccc(-c3cccnc3Cl)n2)c1 [Compound 43, (3-Chloro-phenyl)-[4-(2-chloro-pyridin-3-yl)-pyrimidin-2-yl]-amine]",
> 50 µM,,> 50 µM,"CC(=O)NCCCNc1nccc(-c2ccnc(N(C)c3cccc(Cl)c3)n2)c1C [Compound 13, N-[3-(4-{2-[(3-Chloro-phenyl)-methyl-amino]-pyrimidin-4-yl}-3-methyl-pyridin-2-ylamino)-propyl]-acetamide]",
< 5 µM,,< 5 µM,"NCCCNc1cc2c(cn1)CCc1cnc(Nc3cccc(Cl)c3)nc1-2 [Compound 35, N-(3-Amino-propyl)-N-(3-chloro-phenyl)-9,10-dihydro-2,4,7-triaza-phenanthrene-3,6-diamine]",
15 to 50 µM,,> 50 µM,"COc1ncccc1-c1ccnc(N)n1 [Compound 86, 4-(2-Methoxy-pyridin-3-yl)-pyrimidin-2-ylamine]",

IC50 (CDK9/cyclinT1),IC50 (CDK2/cyclinA),IC50 (CDK1/cyclinB; read-out: CDK1 IC50),SMILES,IC50 (CDK1/cyclinB)
< 5 µM,,< 5 µM,"Cc1c(-c2ccnc(Nc3cccc(Cl)c3)n2)ccnc1NCCCN [Compound 4, N-{4-[2-(3-Chloro-phenylamino)-pyrimidin-4-yl]-3-methyl-pyridin-2-yl}-propane-1,3-diamine]",
< 5 µM,,> 50 µM,"CC(=O)NCCCNc1nccc(-c2ccnc(Nc3cccc(CNC(C)=O)c3)n2)c1C [Compound 15, N-[3-(4-{2-[3-(Acetylamino-methyl)-phenylamino]-pyrimidin-4-yl}-3-methyl-pyridin-2-ylamino)-propyl]-acetamide]",
< 5 µM,,< 5 µM,"Cc1c(-c2ccnc(Nc3cccc(Cl)c3)n2)ccnc1NCCCO [Compound 17, 3-{4-[2-(3-Chloro-phenylamino)-pyrimidin-4-yl]-3-methyl-pyridin-2-ylamino}-propan-1-ol]",
< 5 µM,,15 to 50 µM,"CC(=O)NCc1ccc(NCCCNc2nccc(-c3ccnc(Nc4cccc(Cl)c4)n3)c2C)cc1 [Compound 28, N-[4-(3-{4-[2-(3-Chloro-phenylamino)-pyrimidin-4-yl]-3-methyl-pyridin-2-ylamino}-propylamino)-benzyl]-acetamide]",
< 5 µM,,< 5 µM,"CS(=O)(=O)c1cccc(Nc2nccc(-c3cccnc3Nc3cccc(S(C)(=O)=O)c3)n2)c1 [Compound 51, (3-Methanesulfonyl-phenyl)-{4-[2-(3-methanesulfonyl-phenylamino)-pyridin-3-yl]-pyrimidin-2-yl}-amine]",
< 5 µM,,< 5 µM,"CCc1c(-c2ccnc(Nc3cccc(Cl)c3)n2)ccnc1NCCCNC(C)=O [Compound 7, N-(3-{4-[2-(3-Chloro-phenylamino)-pyrimidin-4-yl]-3-ethyl-pyridin-2-ylamino}-propyl)-acetamide]",
< 5 µM,,5 to 15 µM,"Cc1c(-c2ccnc(Nc3cccc(Cl)c3)n2)ccnc1NCCCNc1ccc(CN)cc1 [Compound 27, N-(4-Aminomethyl-phenyl)-N′-{4-[2-(3-chloro-phenylamino)-pyrimidin-4-yl]-3-methyl-pyridin-2-yl}-propane-1,3-diamine]",
< 5 µM,,5 to 15 µM,"CC(=O)N(C)CCCN(C)c1nccc(-c2ccnc(Nc3cccc(Cl)c3)n2)c1C [Compound 10, N-[3-({4-[2-(3-Chloro-phenylamino)-pyrimidin-4-yl]-3-methyl-pyridin-2-yl}-methyl-amino)-propyl]-N-methyl-acetamide]",
5 to 15 µM,,15 to 50 µM,"Cc1c(-c2ccnc(N(C)c3cccc(Cl)c3)n2)ccnc1NCCCN [Compound 8, N-(4-{2-[(3-Chloro-phenyl)-methyl-amino]-pyrimidin-4-yl}-3-methyl-pyridin-2-yl)-propane-1,3-diamine]",
< 5 µM,,5 to 15 µM,"Cc1c(-c2ccnc(Nc3cccc(Cl)c3)n2)ccnc1NCCC(=O)O [Compound 20, 3-{4-[2-(3-Chloro-phenylamino)-pyrimidin-4-yl]-3-methyl-pyridin-2-ylamino}-propionic acid]",
< 5 µM,,5 to 15 µM,"CC(=O)NCCCNc1nccc2c1CCc1cnc(Nc3cccc(Cl)c3)nc1-2 [Compound 38, N-{3-[3-(3-Chloro-phenylamino)-9,10-dihydro-2,4,7-triaza-phenanthren-8-ylamino]-propyl}-acetamide]",
< 5 µM,,5 to 15 µM,"CC(=O)OCCCNc1nccc(-c2ccnc(Nc3cccc(Cl)c3)n2)c1C [Compound 19, Acetic acid 3-{4-[2-(3-chloro-phenylamino)-pyrimidin-4-yl]-3-methyl-pyridin-2-ylamino}-propyl ester]",
< 5 µM,,< 5 µM,"Cc1cc(-c2ccnc(Nc3cccc(Cl)c3)n2)cc(NCCCN)n1 [Compound 41, N-{4-[2-(3-Chloro-phenylamino)-pyrimidin-4-yl]-6-methyl-pyridin-2-yl}-propane-1,3-diamine]",
15 to 50 µM,,15 to 50 µM,"CNc1nccc(-c2cccnc2OC)n1 [Compound 87, [4-(2-Methoxy-pyridin-3-yl)-pyrimidin-2-yl]-methyl-amine]",
< 5 µM,,15 to 50 µM,"CC(=O)NCCCNc1cc(-c2ccnc(Nc3cccc(Cl)c3)n2)c(C)cn1 [Compound 40, N-(3-{4-[2-(3-Chloro-phenylamino)-pyrimidin-4-yl]-5-methyl-pyridin-2-ylamino}-propyl)-acetamide]",
< 5 µM,,< 5 µM,"CC(=O)NCCCNc1cc2c(cn1)CCc1cnc(Nc3cccc(Cl)c3)nc1-2 [Compound 36, N-{3-[3-(3-Chloro-phenylamino)-9,10-dihydro-2,4,7-triaza-phenanthren-6-ylamino]-propyl}-acetamide]",

SMILES,IC50 (CDK9/cyclinT1),IC50 (CDK2/cyclinA),IC50 (CDK1/cyclinB; read-out: CDK1 IC50),IC50 (CDK1/cyclinB)
"Cc1cnc(Nc2cccc(Cl)c2)nc1-c1cccnc1NCCCn1ccnc1C [Compound 82, (3-Chloro-phenyl)-(5-methyl-4-{2-[3-(2-methyl-imidazol-1-yl)-propylamino]-pyridin-3-yl}-pyrimidin-2-yl)-amine]",< 5 µM,15 to 50 µM,,5 to 15 µM
